Assay results taken from patent US20170037014A1, “FUNGICIDAL PYRAZOLES” (E. I. DU PONT DE NEMOURS AND COMPANY, priority 2014, published 2017).
Marks after values point to notes of the source that are not given here.

How the values were obtained:
[1] = test system: Blumeria graminis f sp. tritici; experiment: Test D: wheat powdery mildew, preventive spray on wheat seedlings, visual disease rating; type: in vivo; settings: 100 = 100% disease control, 0 = no control
Description: General protocol for preparing test suspensions for Tests A-D: the test compounds were first dissolved in acetone in an amount equal to 3% of the final volume and then suspended at the desired concentration (in ppm) in acetone and purified water (50/50 mix by volume) containing 250 ppm of the surfactant Trem® 014 (polyhydric alcohol esters). The resulting test suspensions were then used in Tests A-D. The test suspension was sprayed to the point of run-off on wheat seedlings. The following day the seedlings were inoculated with a spore dust of Blumeria graminis f sp. tritici, (also known as Erysiphe graminis f. sp. tritici, the causal agent of wheat powdery mildew) and incubated in a growth chamber at 20° C. for 8 days, after which time visual disease ratings were made. In the Table, a rating of 100 indicates 100% disease control and a rating of 0 indicates no disease control (relative to the controls). A dash (−) indicates no test results. All results are for 250 ppm except where followed by an “*” which indicates 50 ppm, and where followed by an “**” which indicates 10 ppm

Septoria tritici = experiment: Test B: wheat leaf blotch, preventive spray on wheat seedlings, visual disease rating; type: in vivo; settings: 100 = 100% disease control, 0 = no control
Description: General protocol for preparing test suspensions for Tests A-D: the test compounds were first dissolved in acetone in an amount equal to 3% of the final volume and then suspended at the desired concentration (in ppm) in acetone and purified water (50/50 mix by volume) containing 250 ppm of the surfactant Trem® 014 (polyhydric alcohol esters). The resulting test suspensions were then used in Tests A-D. The test suspension was sprayed to the point of run-off on wheat seedlings. The following day the seedlings were inoculated with a spore suspension of Septoria tritici (the causal agent of wheat leaf blotch) and incubated in a saturated atmosphere at 24° C. for 48 h, and then moved to a growth chamber at 20° C. for 19 days, after which time visual disease ratings were made. In the Table, a rating of 100 indicates 100% disease control and a rating of 0 indicates no disease control (relative to the controls). A dash (−) indicates no test results. All results are for 250 ppm except where followed by an “*” which indicates 50 ppm, and where followed by an “**” which indicates 10 ppm

[2] = test system: Puccinia recondita f sp. tritici; experiment: Test A: wheat leaf rust, preventive spray on wheat seedlings, visual disease rating; type: in vivo; settings: 100 = 100% disease control, 0 = no control
Description: General protocol for preparing test suspensions for Tests A-D: the test compounds were first dissolved in acetone in an amount equal to 3% of the final volume and then suspended at the desired concentration (in ppm) in acetone and purified water (50/50 mix by volume) containing 250 ppm of the surfactant Trem® 014 (polyhydric alcohol esters). The resulting test suspensions were then used in Tests A-D. The test suspension was sprayed to the point of run-off on wheat seedlings. The following day the seedlings were inoculated with a spore suspension of Puccinia recondita f sp. tritici (the causal agent of wheat leaf rust) and incubated in a saturated atmosphere at 20° C. for 24 h, and then moved to a growth chamber at 20° C. for 7 days, after which time visual disease ratings were made. In the Table, a rating of 100 indicates 100% disease control and a rating of 0 indicates no disease control (relative to the controls). A dash (−) indicates no test results. All results are for 250 ppm except where followed by an “*” which indicates 50 ppm, and where followed by an “**” which indicates 10 ppm

Botrytis cinerea = experiment: Test C: tomato Botrytis, preventive spray on tomato seedlings, visual disease rating; type: in vivo; settings: 100 = 100% disease control, 0 = no control
Description: General protocol for preparing test suspensions for Tests A-D: the test compounds were first dissolved in acetone in an amount equal to 3% of the final volume and then suspended at the desired concentration (in ppm) in acetone and purified water (50/50 mix by volume) containing 250 ppm of the surfactant Trem® 014 (polyhydric alcohol esters). The resulting test suspensions were then used in Tests A-D. The test suspension was sprayed to the point of run-off on tomato seedlings. The following day the seedlings were inoculated with a spore suspension of Botrytis cinerea (the causal agent of tomato Botrytis) and incubated in a saturated atmosphere at 20° C. for 48 h, and then moved to a growth chamber at 24° C. for 3 days, after which time visual disease ratings were made. In the Table, a rating of 100 indicates 100% disease control and a rating of 0 indicates no disease control (relative to the controls). A dash (−) indicates no test results. All results are for 250 ppm except where followed by an “*” which indicates 50 ppm, and where followed by an “**” which indicates 10 ppm

[3] = Zymoseptoria tritici, 50 ppm (*)

SMILES | melting point [°C] | Test D disease control rating ([1]; 50 ppm (*)) | Test B disease control rating (Septoria tritici; 50 ppm (*)) | Test A disease control rating ([2]; 50 ppm (*)) | Test C disease control rating (Botrytis cinerea; 50 ppm (*)) | also measured
Cc1nn(C)c(C(C)C)c1C(O)c1ccc(F)cc1Cl (stereo not drawn) [Compound 1, α-(2-chloro-4-fluorophenyl)-1,3-dimethyl-5-(1-methylethyl)-1H-pyrazole-4-methanol] | 152 to 154 | – | – | – | – | pest or weed control at 50 ppm ([1]; Blumeria graminis, 50 ppm (*)): 97%; pest or weed control at 50 ppm (Septoria tritici; [3]): 100%; pest or weed control at 50 ppm ([2]; 50 ppm (*)): 98%; pest or weed control at 50 ppm (Botrytis cinerea; Botrytis cinerea, 50 ppm (*)): 33%
Cc1nn(C)c(C(C)C)c1C(O)c1ccc(F)cc1F (centres unmarked) [Compound 2] | – | 99* % | 99* % | 57* % | 0* % | –
Cc1nn(C)c(CC(C)C)c1C(O)c1ccc(F)cc1Cl (stereo not drawn) [Compound 3, α-(2-chloro-4-fluorophenyl)-1,3-dimethyl-5-(2-methylpropyl)-1H-pyrazole-4-methanol] | 159 to 162 | – | – | – | – | pest or weed control at 10 ppm ([1]; Blumeria graminis, 10 ppm (**)): 71%; pest or weed control at 10 ppm (Septoria tritici; Zymoseptoria tritici, 10 ppm (**)): 100%; pest or weed control at 10 ppm ([2]; 10 ppm (**)): 89%; pest or weed control at 10 ppm (Botrytis cinerea; Botrytis cinerea, 10 ppm (**)): 0%
CC=C(C)c1c(Oc2ccc(F)cc2Cl)c(C)nn1C [Compound 4] | – | – | – | – | – | Test D disease control rating ([1]; 250 ppm): 56%; Test B disease control rating (Septoria tritici; 250 ppm): 0%; Test A disease control rating ([2]; 250 ppm): 0%; Test C disease control rating (Botrytis cinerea; 250 ppm): 39%
C=C(C)Cc1c(C(O)c2ccc(F)cc2Cl)c(C)nn1C (centres unmarked) [Compound 5] | – | 76* % | 99* % | 68* % | 0* % | –
CCC(C)c1c(Oc2ccc(F)cc2Cl)c(C)nn1C (centres unmarked) [Compound 7] | – | – | – | – | – | Test D disease control rating ([1]; 250 ppm): 0%; Test B disease control rating (Septoria tritici; 250 ppm): 0%; Test A disease control rating ([2]; 250 ppm): 0%; Test C disease control rating (Botrytis cinerea; 250 ppm): 0%
Cc1nn(C)c(C2CCCCC2)c1C(O)c1ccc(F)cc1Cl (stereo not drawn) [Compound 8, α-(2-chloro-4-fluorophenyl)-5-cyclohexyl-1,3-dimethyl-1H-pyrazole-4-methanol] | 146 to 149 | – | – | – | – | pest or weed control at 250 ppm ([1]; Blumeria graminis, 250 ppm): 93%; pest or weed control at 250 ppm (Septoria tritici; Zymoseptoria tritici, 250 ppm): 99%; pest or weed control at 250 ppm ([2]; 250 ppm): 99%; pest or weed control at 250 ppm (Botrytis cinerea; Botrytis cinerea, 250 ppm): 86%
CCC(C)c1c(C(O)c2ccc(F)cc2Cl)c(C)nn1C (stereo not drawn) [Compound 9, α-(2-chloro-4-fluorophenyl)-1,3-dimethyl-5-(1-methylpropyl)-1H-pyrazole-4-methanol] | 128 to 131 | – | – | – | – | pest or weed control at 50 ppm ([1]; Blumeria graminis, 50 ppm (*)): 99%; pest or weed control at 50 ppm (Septoria tritici; [3]): 99%; pest or weed control at 50 ppm ([2]; 50 ppm (*)): 100%; pest or weed control at 50 ppm (Botrytis cinerea; Botrytis cinerea, 50 ppm (*)): 99%
CCC(C)c1c(C(O)c2ccc(F)cc2F)c(C)nn1C (stereo not drawn) [Compound 10, α-(2,4-difluorophenyl)-1,3-dimethyl-5-(1-methylpropyl)-1H-pyrazole-4-methanol] | 118 to 121 | – | – | – | – | pest or weed control at 250 ppm ([1]; Blumeria graminis, 250 ppm): 100%; pest or weed control at 250 ppm (Septoria tritici; Zymoseptoria tritici, 250 ppm): 99%; pest or weed control at 250 ppm ([2]; 250 ppm): 100%; pest or weed control at 250 ppm (Botrytis cinerea; Botrytis cinerea, 250 ppm): 99%
Cc1nn(C)c(C2CCCCC2)c1C(O)c1ccc(F)cc1F (stereo not drawn) [Compound 11, 5-cyclohexyl-α-(2,4-difluorophenyl)-1,3-dimethyl-1H-pyrazole-4-methanol] | 161 to 164 | – | – | – | – | pest or weed control at 250 ppm ([1]; Blumeria graminis, 250 ppm): 97%; pest or weed control at 250 ppm (Septoria tritici; Zymoseptoria tritici, 250 ppm): 100%; pest or weed control at 250 ppm ([2]; 250 ppm): 99%; pest or weed control at 250 ppm (Botrytis cinerea; Botrytis cinerea, 250 ppm): 99%
Cc1nn(C)c(C2CCCCC2)c1Oc1ccc(F)cc1Cl [Compound 12, 4-(2-chloro-4-fluorophenoxy)-5-cyclohexyl-1,3-dimethyl-1H-pyrazole] | 75 to 79 | – | – | – | – | pest or weed control at 250 ppm ([1]; Blumeria graminis, 250 ppm): 90%; pest or weed control at 250 ppm (Septoria tritici; Zymoseptoria tritici, 250 ppm): 19%; pest or weed control at 250 ppm ([2]; 250 ppm): 79%; pest or weed control at 250 ppm (Botrytis cinerea; Botrytis cinerea, 250 ppm): 9%
Cc1nn(C)c(C2=CCCCC2)c1Oc1ccc(F)cc1Cl [Compound 13, 4-(2-chloro-4-fluorophenoxy)-5-(1-cyclohexen-1-yl)-1,3-dimethyl-1H-pyrazole] | – | – | – | – | – | pest or weed control at 250 ppm ([1]; Blumeria graminis, 250 ppm): 67%; pest or weed control at 250 ppm (Septoria tritici; Zymoseptoria tritici, 250 ppm): 0%; pest or weed control at 250 ppm ([2]; 250 ppm): 9%; pest or weed control at 250 ppm (Botrytis cinerea; Botrytis cinerea, 250 ppm): 0%
Cc1nn(C)c(CC(C)C)c1C(O)c1ccc(F)cc1F (stereo not drawn) [Compound 14, α-(2,4-difluorophenyl)-1,3-dimethyl-5-(2-methylpropyl)-1H-pyrazole-4-methanol] | 129 to 133 | – | – | – | – | pest or weed control at 50 ppm ([1]; Blumeria graminis, 50 ppm (*)): 98%; pest or weed control at 50 ppm (Septoria tritici; [3]): 99%; pest or weed control at 50 ppm ([2]; 50 ppm (*)): 74%; pest or weed control at 50 ppm (Botrytis cinerea; Botrytis cinerea, 50 ppm (*)): 16%
CCC(C)c1c(Nc2c(F)cc(F)cc2F)c(C)nn1C (centres unmarked) [Compound 15] | – | 0* % | 1* % | 0* % | – | –
CCC(C)c1c(Nc2c(F)cc([N+](=O)[O-])cc2F)c(C)nn1C (centres unmarked) [Compound 16] | – | 0* % | 22* % | 0* % | – | –
CCC(C)c1c(Nc2c(F)cc(C#N)cc2F)c(C)nn1C (centres unmarked) [Compound 17] | – | 69* % | 35* % | 0* % | – | –
CCC(C)c1c(Nc2ccc(F)cc2Cl)c(C)nn1C (centres unmarked) [Compound 18] | – | 0* % | 0* % | 0* % | – | –
Cc1nn(C)c(C2CCCC2)c1C(O)c1ccc(F)cc1Cl (centres unmarked) [Compound 19] | – | 89* % | 100* % | 89* % | 0* % | –
CCC(C)c1c(Nc2ccc(F)c(F)c2)c(C)nn1C (centres unmarked) [Compound 20] | – | 26* % | 0* % | 0* % | – | –
CCC(C)c1c(C(O)c2c(F)cccc2F)c(C)nn1C (centres unmarked) [Compound 25] | – | 86* % | 63* % | 74* % | 17* % | –
Cc1nn(C)c(C2CCCC2)c1C(O)c1ccc(F)cc1F (centres unmarked) [Compound 26] | – | 90* % | 97* % | 74* % | 26* % | –
CC=C(C)c1c(C(O)c2ccc(F)cc2Cl)c(Br)nn1C (centres unmarked) [Compound 27] | – | – | 100* % | 99* % | 58* % | Test D disease control rating ([1]; 250 ppm): 86%
Cn1nc(Br)c(C(O)c2ccc(F)cc2Cl)c1C1=CCCCC1 (centres unmarked) [Compound 28] | – | 64* % | 87* % | 80* % | 0* % | –
